The experiment has as its target T1, Arabidopsis thaliana 5-phosphoribosyl-1-pyrophosphate synthetase 1 (Arabidopsis thaliana, UniProt Q42581).
T1 construct: His-tag (from vector pFastBacHTb); made in house; host or cells: Sf21 insect cells (recombinant baculovirus, pFASTBAC HTb-AtPrs1)
T1 sequence (Q42581 50-403): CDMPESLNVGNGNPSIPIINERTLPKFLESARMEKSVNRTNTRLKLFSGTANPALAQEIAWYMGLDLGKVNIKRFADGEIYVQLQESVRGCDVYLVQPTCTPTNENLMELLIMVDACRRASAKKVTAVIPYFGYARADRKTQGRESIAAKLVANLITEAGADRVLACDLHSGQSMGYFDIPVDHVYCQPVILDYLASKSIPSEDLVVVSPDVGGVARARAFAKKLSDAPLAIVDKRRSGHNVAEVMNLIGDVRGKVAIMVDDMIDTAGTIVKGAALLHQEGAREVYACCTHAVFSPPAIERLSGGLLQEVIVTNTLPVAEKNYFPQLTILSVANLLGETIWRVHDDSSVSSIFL
The experiment can be described thus: 5-Phosphoribosyl-1-pyrophosphate synthetase 1 assay system (photometric, coupled enzyme, drop in NADH at 340 nm). To be noted: 0.5-5 mM inhibitor, recombinant enzyme from Sf21 insect cells, 18 μg total protein. It counts as biochemical. From the text: To obtain active Arabidopsis thaliana 5-phosphoribosyl-1-pyrophosphate synthetase 1 for high-throughput screening methods, the Arabidopsis thaliana Prs1 fragment is obtained from vector pGEM-T AtPrs1 (FIG. 2) using the restriction enzymes BamHI and EcoRI (cleavage sites inserted via primers RBPRPP3 and RBPRPP4) and cloned into the identically cleaved transfer vector pFastBacHTb (GibcoBRL). The resulting construct pFASTBAC HTb-AtPrs1 is used in accordance with the manufacturer's instructions (GibcoBRL) for generating recombinant Baculovirus. This virus is employed in accordance with the manufacturer's instructions (GibcoBRL) for infecting Sf21 insect cells in order to generate active 5-phosphoribosyl-1-pyrophosphate synthetase 1 enzyme. The specific enzymatic phosphoribosyl-pyrophosphate synthetase 1 activity is measured photometrically after the cells have been sonicated. The following components are employed per 90 μl batch: […]
After the cells had been sonicated in lysis buffer (50 mM NaH2PO4, 300 mM NaCl, pH 7.8), 18 μg of total protein are employed. […] What is measured is the drop in NADH at 340 nm.

These results are taken from patent US20040241648A1, “Phosphoribosyl pyrophosphate synthetase 1as herbicidal target” (priority 2000, published 2004).

As for `Nc1ncnc2c1ncn2[C@@H]1O[C@H](COP(=O)(O)OP(=O)(O)OP(=O)(O)O)C[C@H]1O` [cordycepin-5′-triphosphate], the “inhibition of the enzymatic activity of the plant 5-phosphoribosyl-1-pyrophosphate synthetase 1” value is “inhibits the enzymatic activity”.
